Assay results: article PMC11286609, “In vitro and in vivo analyses of eFAP: a novel FAP-targeting small molecule for radionuclide theranostics and other oncological interventions” (EJNMMI Radiopharmacy and Chemistry, 2024)
One block for each molecule: values may come before it.

Legend:
[1] = Stability in mouse serum at 37 °C (radio-HPLC / LC-MS); type: in vitro ADME; details: for Stability (% ± SD) Mouse serum 1 h / Stability (% ± SD) Mouse serum 4 h / Stability (% ± SD) Mouse serum 24 h: % intact labeled ligand, 37 °C; for degradation: mouse serum (MS), up to 24 h of incubation
Procedure: (§1) For the stability assessment of eFAP-6, [^111In]In-eFAP-6 or [^177Lu]Lu-eFAP-6 (~ 3–7 MBq, 20 µL) was mixed with 180 µL of PBS (0.01 M, pH 7.4) and incubated at 37 °C for up to 24 h. A sample of the PBS solution was directly injected on the radio-HPLC at 1, 4, and 24 h after incubation. Additionally, [^111In]In-eFAP-6 and [^177Lu]Lu-eFAP-6 (5–15 MBq, 50 µL) were incubated with 350 µL of commercially acquired mouse or human serum (Biolegend; San Diego, CA, USA) at 37 °C for up to 24 h. Following 1, 4, and 24 h of incubation, 50 µL of the solution were mixed with 50 µL of acetonitrile in an Eppendorf tube, and centrifuged at 5000× g for 20 min. The supernatant was then analyzed by radio-HPLC. Stability studies of eFAP-7 were performed by incubation of eFAP-7 (50 µL, 10^− 4 M) in 450 µL PBS or serum at 37 °C for up to 24 h. After 1, 4, and 24 h of incubation, 50 µL of the PBS incubation solution were directly analyzed by liquid chromatography-mass spectrometry (LC-MS), while 50 µL of the serum solution was mixed with 50 µL of acetonitrile in an Eppendorf tube, and centrifuged at 5000× g for 20 min, followed by LC-MS analyses.

[2] = tested on: HT1080-huFAP and HT1080-WT tumor-bearing mice; assay: Ex vivo biodistribution study in tumor-bearing mice; details: for Biodistribution Bone: femur; for Biodistribution Bone / Biodistribution Blood / Biodistribution Cecum / Biodistribution Colon / Biodistribution Heart / Biodistribution Kidneys / Biodistribution Liver / Biodistribution Lungs / Biodistribution Muscle / Biodistribution Pancreas / Biodistribution Salivary glands / Biodistribution Small intestines / Biodistribution Stomach / Biodistribution Tumor HT1080-WT / Biodistribution Tumor HT1080-huFAP: i.v., 2.6 MBq/200 pmol; for Biodistribution GI Tract: stomach, small intestines, cecum and colon combined
Description: All animal experiments were approved by the Erasmus MC Animal Welfare Committee and were in accordance with European law. Five-week-old male NMRI-Foxn1 nu/nu mice (Janvier; Le Genest-Saint-Isle, France) were housed in individually ventilated cages with a maximum of three mice per cage. After one week of acclimatization, mice were subcutaneously inoculated with HT1080-huFAP on the right shoulder and HT1080-WT on the left shoulder (2.5 × 10^6 cells in Hank’s Balanced Salt Solution (Gibco)). Tumors were allowed to grow for 10 days, resulting in tumor sizes of 537 ± 269 mm^3 and 305 ± 190 mm^3 for HT1080-huFAP and HT1080-WT, respectively, at the start of the experiment. The animals received 200 µL of [^177Lu]Lu-eFAP-6 (n=3/4 per group) or [^177Lu]Lu-FAPI-46 (n=3/4 per group) (2.6 MBq/200 pmol) by intravenous injection through the tail vein, andat 1, 4, and 24 h p.i. biodistribution studies were performed. Blood was collected by orbital puncture under isoflurane/O2 anesthesia, immediately followed by cervical dislocation. Hereafter the two tumor xenografts, pancreas, liver, GI-tract (stomach, small intestine, cecum, colon), kidneys (left and right), lungs, heart, salivary glands, muscle, and bone (femur), were collected, weighed, and measured in a y-counter (PerkinElmer), alongside 10 µL of the injected activity as standard. The results are expressed as the percentage injected dose per gram (% ID/g).
All statistical analyses were performed with GraphPad Prism version 9.0 (San Diego, California USA). All IC50 values were determined using a non-linear regression Log(inhibitor) vs. response analysis with variable slope (four parameters). For the in vivo results outliers were identified by a ROUT test (Q = 1%) and excluded. Next, a two-tailed student’s t-test was performed (*p < 0.05, **p < 0.01, ***p < 0.001). All experiments were performed in triplicate and repeated at least three times.

[3] = Stability in human serum at 37 °C (radio-HPLC / LC-MS); type: in vitro ADME; details: for Stability (% ± SD) Human serum 1 h / Stability (% ± SD) Human serum 4 h / Stability (% ± SD) Human serum 24 h: % intact labeled ligand, 37 °C; for degradation: human serum (HS), up to 24 h of incubation
Procedure: as §1

[4] = Stability in PBS at 37 °C (radio-HPLC / LC-MS); type: physicochemical; details: for Stability (% ± SD) PBS 1 h / Stability (% ± SD) PBS 4 h / Stability (% ± SD) PBS 24 h: % intact labeled ligand, 37 °C; for degradation: up to 24 h of incubation
Procedure: as §1

HT1080-huFAP cells = assay: Radiotracer uptake assay in FAP-expressing cells; type: cell-based, human
Procedure: Cell experiments were performed with the human sarcoma HT1080 cell line, stably transduced with human FAP (HT1080-huFAP) which were kindly provided by Prof. Dr. Uwe Haberkorn from the University of Heidelberg. The wild type HT1080 (ATTC), hereafter HT080-WT, was used as a negative control. Additionally, the pancreatic stellate cells PS-1, obtained from Queen Mary University, were used as an endogenously FAP expressing cell line. HT1080-huFAP and HT1080-WT cells were cultured in DMEM Glutamax© (Gibco; Breda, The Netherlands) and the PS-1 cells were cultured in RPMI (Gibco). Both media were supplemented with 10% FBS (Gibco), 100 UI/mL penicillin, and 100 µg/mL streptomycin (Merck Life Science NV; Amsterdam, The Netherlands). All cell lines were regularly passaged at 80% confluence and cultured at 37 °C, 5% CO2.
In vitro displacement studies of eFAP-6 and eFAP-7, as well as specificity and uptake assays, were performed using HT0180-huFAP cells. One day prior to the assay 100,000 cells were seeded in a 12-well plate in triplicate. […] For the uptake assay, the cells were incubated with 1 nM [^111In]In-eFAP-6 or [^111In]In-FAPI-46 for different time points (5–120 min) in the presence and absence of 1 mM UAMC-1110 to determine the specificity of^111 radiotracer binding. In both assays, the cells were washed twice with PBS after incubation and were subsequently lysed using 1 M NaOH for 20 min. The cell lysates were collected and radioactivity was measured in a γ-counter (PerkinElmer), simultaneously with 100 µL of the radioactive incubation medium as a standard. Cells in separate wells were collected with Trypsin-EDTA (Gibco) for counting by the automated Countess II cell counter (Thermo Fisher Scientific; Bleiswijk, The Netherlands). Uptake was expressed as percentage added activity per 200,000 cells (% AA/200,000 cells), and specific uptake was corrected by subtracting the uptake measured in the block wells.

[5] = LogD7.4 shake-flask method (n-octanol/PBS); type: physicochemical; details: n-octanol/PBS pH 7.4, shake-flask
Procedure: The distribution coefficients (LogD7.4) were determined using a shake-flask method, in which 2 µL (~ 0.5 MBq) of [^111In]In-eFAP-6 or 10 µL of eFAP-7 (10^− 4 M) was added to an Eppendorf tube containing 1 mL of PBS (0.01 M, pH 7.4) and n-octanol (v/v, 1:1). After vigorous vortexing, the solution was centrifuged at 2500× g for 15 min for phase separation. For radiolabeled eFAP-6, samples (3 × 10 µL) of the octanol and aqueous phases were taken out and measured in a 1480 Wizard automatic γ-counter (PerkinElmer; Groningen, The Netherlands). LogD7.4 values were calculated by using the following equation: LogD7.4 = log [(counts in octanol phase)/(counts in aqueous phase)]. For eFAP-7, samples (50 µL) of the octanol and aqueous phases were taken out and measured by LC-MS. LogD7.4 values were calculated by using the following equation: LogD7.4 = log [(area in octanol phase)/(area in aqueous phase)].

Stability (% ± SD) Mouse serum 1 h [1]: 99.3 ± 1.2%
Stability (% ± SD) Mouse serum 4 h [1]: 99.5 ± 0.5%
Stability (% ± SD) Mouse serum 24 h [1]: 98.1 ± 0.4%
degradation [1]: less than 5%
Biodistribution Bone ([2]; 1 h p.i.): 1,80 ± 0,44 %ID/g
Biodistribution Blood ([2]; 1 h p.i.): 0,38 ± 0,08 %ID/g
Biodistribution Cecum ([2]; 1 h p.i.): 0,36 ± 0,01 %ID/g
Biodistribution Colon ([2]; 1 h p.i.): 0,19 ± 0,05 %ID/g
Biodistribution Heart ([2]; 1 h p.i.): 0,15 ± 0,04 %ID/g
Biodistribution Kidneys ([2]; 1 h p.i.): 2,46 ± 0,83 %ID/g
Biodistribution Liver ([2]; 1 h p.i.): 2,32 ± 0,43 %ID/g
Biodistribution Lungs ([2]; 1 h p.i.): 0,33 ± 0,08 %ID/g
Biodistribution Muscle ([2]; 1 h p.i.): 0,19 ± 0,03 %ID/g
Biodistribution Pancreas ([2]; 1 h p.i.): 0,25 ± 0,02 %ID/g
Biodistribution Salivary glands ([2]; 1 h p.i.): 0,56 ± 0,08 %ID/g
Biodistribution Small intestines ([2]; 1 h p.i.): 0,33 ± 0,34 %ID/g
Biodistribution Stomach ([2]; 1 h p.i.): 0,33 ± 0,32 %ID/g
Biodistribution Tumor HT1080-WT ([2]; 1 h p.i.): 0,50 ± 0,11 %ID/g
Biodistribution Tumor HT1080-huFAP ([2]; 1 h p.i.): 6,44 ± 1,09 %ID/g
Biodistribution Bone ([2]; 4 h p.i.): 1,27 ± 0,24 %ID/g
Biodistribution Blood ([2]; 4 h p.i.): 0,22 ± 0,07 %ID/g
Biodistribution Cecum ([2]; 4 h p.i.): 0,32 ± 0,08 %ID/g
Biodistribution Colon ([2]; 4 h p.i.): 0,14 ± 0,03 %ID/g
Biodistribution Heart ([2]; 4 h p.i.): 0,10 ± 0,03 %ID/g
Biodistribution Kidneys ([2]; 4 h p.i.): 1,11 ± 0,21 %ID/g
Biodistribution Liver ([2]; 4 h p.i.): 2,87 ± 1,18 %ID/g
Biodistribution Lungs ([2]; 4 h p.i.): 0,15 ± 0,03 %ID/g
Biodistribution Muscle ([2]; 4 h p.i.): 0,16 ± 0,06 %ID/g
Biodistribution Pancreas ([2]; 4 h p.i.): 0,18 ± 0,06 %ID/g
Biodistribution Salivary glands ([2]; 4 h p.i.): 0,41 ± 0,14 %ID/g
Biodistribution Small intestines ([2]; 4 h p.i.): 0,12 ± 0,04 %ID/g
Biodistribution Stomach ([2]; 4 h p.i.): 0,11 ± 0,04 %ID/g
Biodistribution Tumor HT1080-WT ([2]; 4 h p.i.): 0,36 ± 0,11 %ID/g
Biodistribution Tumor HT1080-huFAP ([2]; 4 h p.i.): 5,92 ± 1,63 %ID/g
Biodistribution GI Tract ([2]; 4 h p.i.): 0,17 ± 0,05 %ID/g
Biodistribution Bone ([2]; 24 h p.i.): 0,19 ± 0,01 %ID/g
Biodistribution Blood ([2]; 24 h p.i.): 0,01 ± 0,00 %ID/g
Biodistribution Cecum ([2]; 24 h p.i.): 0,03 ± 0,00 %ID/g
Biodistribution Colon ([2]; 24 h p.i.): 0,02 ± 0,01 %ID/g
Biodistribution Heart ([2]; 24 h p.i.): 0,01 ± 0,00 %ID/g
Biodistribution Liver ([2]; 24 h p.i.): 1,67 ± 1,07 %ID/g
Biodistribution Lungs ([2]; 24 h p.i.): 0,01 ± 0,00 %ID/g
Biodistribution Muscle ([2]; 24 h p.i.): 0,01 ± 0,00 %ID/g
Biodistribution Pancreas ([2]; 24 h p.i.): 0,01 ± 0,00 %ID/g
Biodistribution Salivary glands ([2]; 24 h p.i.): 0,02 ± 0,00 %ID/g
Biodistribution Small intestines ([2]; 24 h p.i.): 0,02 ± 0,00 %ID/g
Biodistribution Stomach ([2]; 24 h p.i.): 0,02 ± 0,01 %ID/g
Biodistribution Tumor HT1080-WT ([2]; 24 h p.i.): 0,06 ± 0,01 %ID/g
Biodistribution GI Tract ([2]; 24 h p.i.): 0,02 ± 0,00 %ID/g
Stability (% ± SD) Human serum 1 h [3]: 99.5 ± 0.0%
Stability (% ± SD) Human serum 4 h [3]: 99.5 ± 0.0%
Stability (% ± SD) Human serum 24 h [3]: 98.1 ± 0.3%
degradation [3]: less than 5%
Stability (% ± SD) PBS 1 h [4]: 97.6 ± 1.1%
Stability (% ± SD) PBS 4 h [4]: 97.3 ± 0.4%
Stability (% ± SD) PBS 24 h [4]: 94.9 ± 0.6%
degradation [4]: less than 5%
SMILES: N#C[C@@H]1CC(F)(F)CN1C(=O)CNC(=O)c1ccnc2c(OCCCNC(=O)CN3CCN(CC(=O)[O-])CCN(CC(=O)[O-])CCN(CC(=O)[O-])CC3)cccc12.[177Lu+3] [[^177Lu]Lu-eFAP-6]

Stability (% ± SD) Mouse serum 1 h [1]: 92.1 ± 1.2%
Stability (% ± SD) Mouse serum 4 h [1]: 92.1 ± 1.4%
Stability (% ± SD) Mouse serum 24 h [1]: 91.0 ± 0.9%
degradation [1]: less than 10%
Stability (% ± SD) Human serum 1 h [3]: 91.2 ± 0.1%
Stability (% ± SD) Human serum 4 h [3]: 91.3 ± 0.7%
Stability (% ± SD) Human serum 24 h [3]: 90.4 ± 0.8%
degradation [3]: less than 10%
LogD7.4 [5]: -3.90 ± 0.03
Stability (% ± SD) PBS 1 h [4]: 93.2 ± 0.5%
Stability (% ± SD) PBS 4 h [4]: 93.1 ± 0.6%
Stability (% ± SD) PBS 24 h [4]: 92.3 ± 0.6%
degradation [4]: less than 10%
SMILES: N#C[C@@H]1CC(F)(F)CN1C(=O)CNC(=O)c1ccnc2c(OCCCNC(=O)CN3CCN(CC(=O)[O-])CCN(CC(=O)[O-])CCN(CC(=O)[O-])CC3)cccc12.[111In+3] [[^111In]In-eFAP-6]
incubation time at peak uptake (HT1080-huFAP cells; 1 nM radiotracer, 5–120 min): 15 min
peak uptake (HT1080-huFAP cells; 1 nM radiotracer, 5–120 min): 20.8 % AA/200,000 cells
uptake on co-incubation with an excess of UAMC-1110 (block) (HT1080-huFAP cells; 1 mM UAMC-1110, 45 min): negligible uptake
